Experimental data from US20250145637A1, “SULFONAMIDE DERIVATIVE, PREPARATION METHOD THEREFOR AND MEDICAL USE THEREOF” (Jiangsu Hengrui Pharmaceuticals Co. Ltd., priority 2021, published 2025).

Assays:
ERα expression = conditions: ER+ breast cancer cells highly expressing KAT6A; cited from earlier work
ER+ breast cancer = conditions: both in vitro and in vivo; cited from earlier work
human KAT6A = human KAT6A (Homo sapiens (Human), UniProt Q92794); experiment: KAT6 enzyme activity assay (AlphaScreen method), KAT6A; type: biochemical; conditions: inhibition of the enzyme human KAT6A
Excerpt: Test Example 1: KAT6 Enzyme Activity Assay (AlphaScreen Method)
I. Reagents and instrument • 1. KAT6A (customized by Chempartner) • 2. Ovalbumin (Sigma-Aldrich, A5378-5G) • 3. 2 M Tris-HCl solution, pH 7.8, sterile (Sangon, B548140-0500) • 4. 5 M NaCl solution (Sangon, B548121-0100) • 5. EDTA (0.5 M), pH 8.0, RNase-free (Thermofisher, AM9260G) • 6. Tween-20 (Sangon, A100777-0500) • 7. DTT, 1 M (Invitrogen, P2325) • 8. Acetyl coenzyme A (Ac-CoA, CAYMAN, Cat. No. 16160) • 9. Recombinant histone H3.1 biotinylated (human) (Active Motif 31696) • 10. 384-well plate, light gray (Perkin Elmer, Cat. No. 6005350) • 11. Anacardic acid (MCE, Cat. No. HY—N2020) • 12. AlphaScreen streptavidin donor beads, 5 mg (PerkinElmer, 6760002) • 13. AlphaScreen protein A acceptor beads, 5 mg (PerkinElmer, 6760137M) • 14. Acetylated-lysine antibody #9441 (CST 9441S) • 15. PHERA star microplate reader (BMG labtech) • II. Experimental method
a. 1× assay buffer: 100 mM Tris-HCl, pH 7.8; 15 mM NaCl; 1 mM EDTA; 0.01% tween-20; 1 mM DTT; 0.01% m/v ovalbumin.
b. KAT enzyme solution: 1.25 nM (final concentration), prepared in 1× assay buffer.
c. Mixed substrate of Ac-CoA and H3: a mixed substrate of 1000 nM (final concentration) Ac-CoA and 55 nM (final concentration) H3, prepared in 1× assay buffer.
d. Compounds: initial concentration of 100 μM, 3-fold dilution, 10 gradient concentrations. All compound concentrations were diluted 83-fold with 1× assay buffer for later use.
e. Assay reagent: 8 ng/μL (final concentration) AlphaScreen protein A acceptor beads, 8 ng/μL AlphaScreen streptavidin donor beads, 1:1500 diluted acetylated-lysine antibody, and 100 μM anacardic acid; prepared in 1× assay buffer.
2. Experimental Procedure
a. The prepared enzyme solution was added to a 384-well plate at 3 μL/well, and 3 μL of 1× assay buffer was added to each well in columns 23 and 24 (Min).
b. 3 μL of compound solution was added to each well, and 3 μL of buffer was added to each Min well; 3 μL of DMSO solution was added to each well in columns 1 and 2 (Max) as controls. The plate was centrifuged, shaken for 2 min, and incubated at room temperature for 15 min.
c. The mixed substrate of Ac-CoA and H3 was added at 6 μL/well, and the plate was centrifuged, shaken for 2 min, and incubated at room temperature for 20 min.
d. The assay reagent was added at 6 μL/well, and the plate was centrifuged, shaken for 2 min, and incubated in the dark at room temperature for 120 min.
e. Plate reading was performed on the microplate reader, and AlphaScreen counts were recorded.
f. Plotting was performed using the Graphpad software, and the IC50 values of the compounds were calculated.

[1] = Pharmacokinetic evaluation in SD rats; type: in vivo; conditions: both sexes, rat, plasma, po, i.g., 2.0 mg/kg
Experimental: Test Example 5: Pharmacokinetic Evaluation
SD rats were used as test animals. After intragastric (i.g.) administration of the compounds of the present disclosure to SD rats, the plasma concentrations at different time points were measured by the LC/MS/MS method. The pharmacokinetic behavior of the compounds of the present disclosure in SD rats was studied, and their pharmacokinetic profiles were evaluated.
Compound 2, compound 7, compound 21, and compound 23.
16 SD rats, of which half were male and half female, were evenly divided into 4 groups. The rats were provided by Vital River Laboratory Animal Technology Co., Ltd. The rats were fasted overnight and intragastrically administered the compounds.
2.3. Compound Solution Preparation
A certain amount of test compound was weighed out and dissolved in 5% DMSO+5% tween 80+90% normal saline to prepare a 0.2 mg/mL colorless clear solution.
The dose administered was 2.0 mg/kg, and the volume was 10.0 mL/kg.
0.1 mL blood samples were collected from the orbit before the administration and 0.25 h, 0.5 h, 1.0 h, 2.0 h, 4.0 h, 6.0 h, 8.0 h, 11.0 h and 24.0 h post-dose. The blood samples were placed into EDTA-K2 anticoagulation tubes and centrifuged at 10,000 rpm for 1 min (4° C.), and plasma was separated within 1 h and stored at −20° C. before analysis. The process from the blood collection to the centrifugation was performed in an ice bath. Access to food was given 2 h post-dose.
Measurement of plasma concentrations in SD rats after compounds were administered in different concentrations: 25 μL samples of the SD rat plasma collected at various time points post-dose were taken, and to each of the samples was added 25 μL of camptothecin (an internal standard for compound 2, 100 ng/mL) or 50 μL of tolbutamide (an internal standard for compound 7, 100 ng/mL) or 50 μL of verapamil (an internal standard for compounds 21 and 23, 100 ng/mL). Protein was precipitated with 200 μL of acetonitrile, and after 5 min of vortexing, the mixtures were centrifuged at 3700 rpm for 10 min. 120 µL of supernatant was taken and vortexed with 30 μL of water for 5 min, and a 5 μL sample was taken for LC/MS/MS analysis.

Sequence of human KAT6A (Q92794 whole entry): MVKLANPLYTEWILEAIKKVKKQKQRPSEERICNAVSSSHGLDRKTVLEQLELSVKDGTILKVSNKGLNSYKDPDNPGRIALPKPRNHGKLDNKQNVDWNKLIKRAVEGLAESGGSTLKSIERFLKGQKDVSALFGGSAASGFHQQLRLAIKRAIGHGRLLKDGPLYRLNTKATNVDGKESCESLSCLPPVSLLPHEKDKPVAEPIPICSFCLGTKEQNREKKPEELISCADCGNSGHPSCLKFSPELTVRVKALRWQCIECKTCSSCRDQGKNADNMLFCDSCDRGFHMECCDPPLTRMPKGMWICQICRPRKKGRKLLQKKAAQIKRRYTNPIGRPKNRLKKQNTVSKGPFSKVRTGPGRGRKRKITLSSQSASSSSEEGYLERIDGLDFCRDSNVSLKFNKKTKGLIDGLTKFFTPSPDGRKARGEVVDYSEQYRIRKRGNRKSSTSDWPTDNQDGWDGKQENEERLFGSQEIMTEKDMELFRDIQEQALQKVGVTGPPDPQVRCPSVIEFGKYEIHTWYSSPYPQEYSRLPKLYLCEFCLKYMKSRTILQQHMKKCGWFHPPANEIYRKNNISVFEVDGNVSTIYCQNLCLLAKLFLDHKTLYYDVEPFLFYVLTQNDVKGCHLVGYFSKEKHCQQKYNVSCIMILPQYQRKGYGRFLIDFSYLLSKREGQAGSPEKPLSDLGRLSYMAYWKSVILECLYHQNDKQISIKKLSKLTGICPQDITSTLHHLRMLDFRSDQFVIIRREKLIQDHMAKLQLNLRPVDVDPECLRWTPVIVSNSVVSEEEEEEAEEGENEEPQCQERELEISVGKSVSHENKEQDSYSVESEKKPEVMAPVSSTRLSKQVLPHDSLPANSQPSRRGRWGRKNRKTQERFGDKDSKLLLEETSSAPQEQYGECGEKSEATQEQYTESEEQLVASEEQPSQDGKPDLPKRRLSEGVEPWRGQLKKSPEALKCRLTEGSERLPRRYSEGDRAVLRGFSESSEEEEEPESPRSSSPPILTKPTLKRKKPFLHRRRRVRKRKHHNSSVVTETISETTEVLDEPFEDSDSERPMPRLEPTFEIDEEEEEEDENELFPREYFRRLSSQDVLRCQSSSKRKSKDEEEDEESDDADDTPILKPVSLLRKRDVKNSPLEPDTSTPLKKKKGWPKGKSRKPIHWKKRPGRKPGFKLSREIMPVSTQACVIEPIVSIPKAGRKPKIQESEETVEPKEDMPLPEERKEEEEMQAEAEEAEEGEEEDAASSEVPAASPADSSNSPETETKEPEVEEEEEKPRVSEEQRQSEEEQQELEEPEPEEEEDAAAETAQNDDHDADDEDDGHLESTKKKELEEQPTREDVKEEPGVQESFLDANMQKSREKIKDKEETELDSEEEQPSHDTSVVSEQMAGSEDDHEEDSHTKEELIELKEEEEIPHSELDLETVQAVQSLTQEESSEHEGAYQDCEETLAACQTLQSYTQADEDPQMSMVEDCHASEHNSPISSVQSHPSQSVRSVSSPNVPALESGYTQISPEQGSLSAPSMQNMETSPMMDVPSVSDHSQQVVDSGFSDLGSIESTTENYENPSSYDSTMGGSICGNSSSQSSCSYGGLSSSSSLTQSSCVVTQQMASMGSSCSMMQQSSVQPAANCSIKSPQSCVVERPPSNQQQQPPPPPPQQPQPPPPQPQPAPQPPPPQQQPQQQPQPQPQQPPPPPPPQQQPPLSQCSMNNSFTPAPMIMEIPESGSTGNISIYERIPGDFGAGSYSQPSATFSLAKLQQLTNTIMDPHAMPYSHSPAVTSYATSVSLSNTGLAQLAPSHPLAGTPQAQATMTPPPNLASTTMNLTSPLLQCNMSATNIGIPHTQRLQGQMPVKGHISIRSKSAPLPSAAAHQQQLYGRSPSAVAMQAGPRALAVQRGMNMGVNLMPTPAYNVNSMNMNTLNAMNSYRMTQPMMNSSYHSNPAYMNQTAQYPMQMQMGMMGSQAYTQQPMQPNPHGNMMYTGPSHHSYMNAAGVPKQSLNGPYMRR

| IC50 (human KAT6A) | Vd/F ([1]; read-out: Apparent distribution volume Vz/F) | AUC(0-t) ([1]; read-out: Area under curve AUC0-t) | CL/F ([1]; read-out: Clearance rate CL/F) | half-life ([1]; read-out: Half-life T½ (converted)) | Cmax ([1]; read-out: Plasma concentration Cmax) | Compound | ERα expression (ERα expression) | anti-tumor activity in ER+ breast cancer (ER+ breast cancer) |
| --- | --- | --- | --- | --- | --- | --- | --- | --- |
| – | – | – | – | – | – | COc1cccc(OC)c1S(=O)(=O)Nc1noc2cc(Cn3cccn3)cc(OC)c12 [CTx-648] | can down-regulate ERα expression | shows anti-tumor activity |
| 4.6 nM | 0.496 L/kg | 43700 ng·h/mL | 0.788 mL/min/kg | 575 min | 4310 ng/mL | Cc1ccc(S(=O)(=O)Nc2noc3cc(Cn4cccn4)c4c(c23)OCC4)c(OCC(F)(F)F)c1 [Compound 21, N-(4-((1H-pyrazol-1-yl)methyl)-2,3-dihydrobenzofuro[7,6-d]isoxazol-8-yl)-4-methyl-2-(2,2,2-trifluoroethoxy)benzenesulfonamide] | – | – |
